Measurements from patent publication US20240216359A1, “TREATMENT OF NEUROLOGICAL DISORDERS” (GMP BIOTECHNOLOGY LIMITED, priority 2021, published 2024).
Where a name gives a salt, the structure may show the parent alone. Read-outs that look alike come from different tables or passages of the source.

Key:
[1] = cited from earlier work
[2] = adverse event rate, comparator; cited from earlier work
[3] = 25° C.; cited from earlier work
[4] = Pilot double-blind crossover study in subjects with erectile dysfunction principally of psychogenic origin; type: in vivo, human
Excerpt: The primary efficacy parameter was each subject's assessment of the quality of the erection (graded on a 4-point scale). Secondary endpoints included frequency of erection, time from dosing to erection, duration of erection, and efficacy index (EI) for subjects achieving erections. Safety was primarily assessed via adverse events but cardiovascular effects were also investigated by monitoring blood pressure, heart rates, and percent oxygen saturation, prior to and following dosing. The integrity of the nasal mucosa of both nostrils was also evaluated prior to dosing, in the event of nasal symptoms, and at the end of each treatment visit.
Subjects made a total of six visits to the site, an initial screening and qualification visit, three treatment visits in Part 1, and two treatment visits in Part 2. Eligible subjects were randomized to a treatment sequence for Part I after the initial screening visit. Approximately 2 months later, subjects were randomized to a treatment sequence for Part 2.
At each treatment visit, a single dose of study treatment was administered. Efficacy was measured by means of ED questionnaires, which were completed by each subject. Following dosing, all subjects viewed sexually explicit videotapes and magazines for approximately 60 minutes. At the end of this period, the questionnaires were completed and patients were asked to rate the quality of the erection using a 4-point scale. The primary efficacy variable was the subject's global rating of erection, measured on a scale of 1 to 4: 1=increase in size but not hard; 2=hard, but not hard enough for vaginal penetration; 3=hard enough for vaginal penetration (but not completely hard); 4=completely hard.
Safety was measured by monitoring the subjects' blood pressure, heart rate and percent oxygen saturation (by pulse oximetry) before and after dosing (approximately 90 minutes after dosing commenced). In addition, the integrity of the subject's nasal mucosa was assessed prior to, and at the end of treatment. Information on adverse events was collected throughout the period of the study.
Drugs, Doses, and Regimens: At each treatment visit, subjects received one dose of study treatment.

In the case of `CN1CCc2cccc3c2[C@H]1Cc1ccc(O)c(O)c1-3` [Apomorphine Hydrochloride], the “volume of water in which one gram dissolves” value ([1]; water at 80° C.) is listed as “about 20 ml” and the “volume of water in which one gram dissolves” value ([1]; water) is listed as 50 mL.

In the case of `CN1CC(=O)N2[C@H](c3ccc4c(c3)OCO4)c3[nH]c4ccccc4c3C[C@@H]2C1=O` [Cialis], the Dizziness [2] is given as 6.2%, the Dyspepsia [2] is given as 7.7% and the Flushing [2] is given as 4.2%. The Headache [2] was 13.9%.

In the case of `O=C(O)CC(O)(CC(=O)O)C(=O)O` [Citric Acid], the pKa1 [3] is given as 3.128, the pKa2 [3] is given as 4.761 and the pKa3 [3] is given as 6.396.

For `CCCc1nn(C)c2c(=O)[nH]c(-c3cc(S(=O)(=O)N4CCN(C)CC4)ccc3OCC)nc12` [Viagra], the “difference in effectiveness in initiating erections between treatments and placebo” value ([4]; apomorphine HCl 0.25, 0.50, 1.0 mg, Viagra 50 mg) was “no statistically significant difference”, the serious adverse events ([4]; human, in vivo) was “no serious adverse events” and the “subjects who achieved a satisfactory erection (as reported by the subject)” value ([4]; single dose) was “around 30%”. The “efficacy by Global Self Assessment Scores (grade 3 or 4)” value ([4]; single dose, apomorphine 0.25-1.0 mg intranasal, Viagra 50 mg) was 67%.
